Experimental findings from US20250275993A1, “GLYCOSYLATION INHIBITORS AS THERAPEUTICS FOR STROKE” (The Regents of the University of California, priority 2022, published 2025) are described below.

The test system of test [1] is Bip, CHOP, ATF-6. Nature of the test: Western blot of UPR responsive proteins in BCECs. It counts as cell-based, bovine. Conditions: for restoration of ATF-6 expression: ManN at 400 μM. For orientation: A western blot detects proteins with antibodies after separation by electrophoresis.
Test [2] deals with bovine choroidal microvascular endothelial cells (BCEC). Nature of the test: BCEC proliferation assay (AlamarBlue / crystal violet). Type of test: cell-based. As to conditions: for stimulation of BCEC proliferation by other hexosamines and structurally related molecules: with or without VEGF, tested alongside ManN. The protocol: The effect of ManN on EC proliferation was assessed.
AlamarBlue detects mitochondria activity as an indication of cell viability which correlates with cell number at certain ranges.
Proliferation assays with BCECs and BRECs were performed. Log-phase growing BCECs or BRECs (passage <10) were trypsinized, re-suspended and seeded in 96-well plates (no coating) in low-glucose DMEM supplemented with 10% bovine calf serum, 2 mM glutamine, and antibiotics (growth medium), at a density of 1200-1500 cells per well in 200 μl volume. All reagents were added at the indicated final concentrations. After 3-6 days, cells were incubated with AlamarBlue for 4 hrs. Fluorescence was measured at 530 nm excitation wavelength and 590 nm emission wavelength. The experiments were repeated at least three times. […] 20% methanol or 0.05% DMSO served as negative controls. […] Human RMVECs and human adult DMVECs were split into Gelatin-coated 96 wells (2000 cells per well) in low glucose DMEM containing 10% FBS. 1200 cells/well was set up for proliferation assay in low glucose media containing 0.5% FBS. Data was collected at day 4 or 5. HUVEC (p7-10) were grown on gelatin-coated plate until it reached 70-80% confluency.
On the day of the assay, cells were dissociated with 0.05% trypsin, which was neutralized with 0.5% FBS-containing EBM. Cells were briefly spun and then re-suspended in 0.5% FBS-media. Cells were counted and plated in 96-well, 1000 cells/well. Triplicate wells were used for each treatment. Data were collected at day 3, and then cells were fixed in 4% paraformaldehyde for 15 min before adding crystal violet. Cell-covered areas were quantified after taking pictures by Image J software.
Background: Resazurin is reduced to fluorescent resorufin, in cell work by metabolically active cells.

Test [3] concerns JNK/c-jun. Briefly: Western blot of JNK pathway activation in BCECs. Type of test: cell-based, bovine. Conditions: 40 μM; BCECs; FIG. 7E. The protocol:
(§1) Cells were allowed to reach-80% confluency in 12-well plates. […] At various time points, plates were taken out of the incubator and kept on ice. Cell monolayers were first washed once with ice-cold PBS before lysis with 250 μI of Pierce RIPA buffer (ThermoFisher Scientific, Rockford, IL) or use 50 mM Tris-HCl (pH 7.6), 150 mM NaCl, 10% Glycerol, 1% NP-40 containing protease/Phosphatase inhibitor cocktail (100×) (Cell signaling, #5872). Lysates were collected and mixed with 4× Bolt LDS Sample Buffer (Novex, Carlsbad, CA) in the presence of Halt protease inhibitors and phosphatase inhibitor cocktail (ThermoFisher scientific, #NP0007). The samples were subjected to SDS-PAGE (Bolt 4-12% Bis-Tris Plus, Invitrogen) using Bolt MES SDS running buffer or NuPAGE 3-8% Tris-Acetate gel using Tris-Acetate SDS running buffer (Novex). HUVECs (passage 6-8) were plated in EBM-2 basal medium (Lonza) with 0.2% FBS. Following overnight culture, cells were serum-starved in EBM-2 medium for 4 hrs prior to treatment with 50 ng/ml of VEGF165 or vehicle controls for various lengths. Equal amounts of protein lysates were analyzed by SDS-PAGE and blotted with the indicated antibodies. Proteins were transferred using Tris-Glycine buffer with 20% Methanol (Proteonomics grade) (Apex BioResearch Products). Membranes were first incubated with 5% milk in TBST, pH 7.6 (TEKnova, Hollister, CA), followed by blotting with primary and secondary antibodies. ECL anti-rabbit IgG, horseradish peroxidase linked whole antibody from donkey or sheep anti-mouse were obtained from GE Healthcare (UK limited). SuperSignal West Dura Extended Duration substrate was from ThermoFisher Scientific. In some cases, the same PVDF membranes were stripped by 8-min incubation in the Restore Plus Western Blot Stripping Buffer (ThermoFisher Scientific) to show total specific protein expression, followed by second stripping for (3-actin expression.

For test [4], the system named is ERK and AKT. Nature of the test: Western blot of ERK and AKT activation in HUVEC and hDMVECs. It counts as cell-based, human. As to conditions: 40 μM. The protocol: as §1, with “Membranes were first incubated with 5% milk in TBST, pH 7.6 (TEKnova, Hollister, CA), followed by blotting with primary and secondary antibodies. ECL anti-rabbit IgG, horseradish peroxidase linked whole antibody from donkey or sheep anti-mouse were obtained from GE Healthcare (UK limited). SuperSignal West Dura Extended Duration substrate was from ThermoFisher Scientific. In some cases, the same PVDF membranes were stripped by 8-min incubation in the Restore Plus Western Blot Stripping Buffer (ThermoFisher Scientific) to show total specific protein expression, followed by second stripping for (3-actin expression.” left out

Test [5] concerns BCEC confluent monolayers. Briefly: BCEC scratch assay. Conditions: over 48 hours relative to control. It counts as cell-based, bovine. The protocol:
BCECs (passage 6-10) and HUVEC (passage 6-8) were used in this assay. Cells were grown until about 80% confluency in 6-well plates, washed twice with PBS and then starved in serum-free DMEM (low Glucose, Hyclone) for 5 hrs before making a “scratch” using 1 ml tip. Cell monolayers were briefly washed once with serum-free media, followed by various treatments in media containing 1% FBS. 48 hrs later, the assay was stopped by adding 2 ml 4% paraformaldehyde. 20 min later, fixed cells were stained with 1 ml Crystal Violet (Sigma). Plates were washed gently under the running tap water and air-dried before taking pictures. Images were acquired by ZEISS Discovery […] microscopy equipped with […] camera. Quantification of wound closure was done using AxioVision LE Rel.4.4 software. Six images were taken for each sample and six measurements (in pixel) were made on each image using AxioVision LE Re1.4.4 software.

The test system of test [6] is ERK, AKT, mTOR, CREB, ACC and eNOS. Nature of the test: Western blot of signal transduction pathways in BCECs. Type of test: cell-based, bovine. As to conditions: 40 μM. The protocol: as §1, with “Cell monolayers were first washed once with ice-cold PBS before lysis with 250 μI of Pierce RIPA buffer (ThermoFisher Scientific, Rockford, IL) or use 50 mM Tris-HCl (pH 7.6), 150 mM NaCl, 10% Glycerol, 1% NP-40 containing protease/Phosphatase inhibitor cocktail (100×) (Cell signaling, #5872).” left out, “The samples were subjected to SDS-PAGE (Bolt 4-12% Bis-Tris Plus, Invitrogen) using Bolt MES SDS running buffer or NuPAGE 3-8% Tris-Acetate gel using Tris-Acetate SDS running buffer (Novex).” left out

Test [7] relates to retinal vasculature. Nature of the test: Retinal neovascularization after intravitreal injection. It counts as in vivo, mouse. Conditions: 500 ng ManN or Kif, 200 ng bFGF intravitreally; after seven days. How it is done: The effect of ManN and Kif on inducing retinal neovascularization was assessed. The findings in cultured eye-derived EC were extended to a suitable in vivo model system. The mouse retina has been used extensively over the past decades to study both physiological and pathological angiogenesis. To obtain a detailed description of the retinal vasculature, images from retinal flat mounts were processed for vascular area fraction (ratio of area covered by blood vessels to total retinal area). Using this model, the effects of ManN in retinal neovascularization were assessed. Kif was also tested in this model because it is a water-soluble inhibitor and its mechanism of glycosylation inhibition is well established. In addition, it shares with ManN the ability to activate ERK, AKT and stress pathways in BCEC (FIG. 7E).
Assessment of retinal angiogenesis following intravitreal administration was done. Briefly, 6-8 weeks old C57BL/6 male mice were randomly allocated to different groups and anesthetized with ketamine/Xylazine cocktail. The indicated amounts of ManN, Kif or bFGF (R&D systems, AF-233-NA) in 1 μl of PBS and PBS vehicle control were injected intravitreally with a 33-gauge Hamilton syringe. Seven days after injection, animals were euthanized. Eyes were then enucleated and fixed in 4% paraformaldehyde (PFA) for 30 mins. Retinas were separated and stained with anti-CD31 immunofluorescence (IF) to evidence the vasculature. Evaluations were performed by an investigator blinded to the treatment. For CD31 IF, rat anti-mouse antibody (BD Biosciences, CAT #550274) was diluted 1:100 and incubated overnight at 4° C. After 4-hour incubation with the Alexa Fluor-488-conjugated anti-rat antibody (Life Technologies, A11006), whole mounts were imaged via the 488 nm channel using AIR Confocal STORM super-resolution system (Nikon). Quantification of vascular density in choroids and retina was carried out by Image J. Each experiment was repeated three times with similar results, and each treatment group consists of 5 individual samples.

Entries after “also recorded” stand apart in the source; their conditions may differ.

`C[C@H](CCC(=O)NCCS(=O)(=O)O)[C@H]1CC[C@H]2[C@@H]3[C@@H](O)C[C@@H]4C[C@H](O)CC[C@]4(C)[C@H]3CC[C@]12C` [TUDCA, tauroursodeoxycholic acid]: the “restoration of ATF-6 expression” value in test [1] was “much weaker”.

As for `N[C@H]1C(O)O[C@H](CO)[C@H](O)[C@@H]1O` (stereo partly drawn) [galactosamine, D-(+)-Galactosamine], the “stimulation of BCEC proliferation by other hexosamines and structurally related molecules” value (shortened to “stimulation of BCEC proliferation”) in test [2] is given as “none of these hexosamines had significant stimulatory effects”.

For `N[C@H]1C(O)O[C@H](CO)[C@@H](O)[C@@H]1O` (stereo partly drawn) [glucosamine, D-(+)-Glucosamine], in test [2], the “stimulation of BCEC proliferation” value is “none of these hexosamines had significant stimulatory effects”.

Take `O=C(O)CCCc1ccccc1` [4-PBA, 4-phenylbutyric acid]: the “prevention of CHOP induction by ManN” value in test [1] (2 mM 4-PBA or 500 µM TUDCA, ManN at 400 μM and 5 mM) is “could prevent the induction of CHOP expression”. Besides, the “restoration of ATF-6 expression” value in test [1] is reported as “restore the expression of ATF-6”. Besides, the “reversal of ManN activity on BCEC proliferation by chaperone” value in test [2] (pre-treating with 1 mM 4-PBA for 4 hours, absence or presence of VEGF) was “effectively reverse the bell-shaped activity of ManN on BCEC proliferation”. Further, the “effect of chaperone on ManN/VEGF additivity and ManN toxicity” value in test [2] (pre-treatment with 1 mM 4-PBA for 8 hours, FIG. 5D) was “abrogated additive effects of 40 μM ManN and 5 ng/ml VEGF and protected cells from toxic effect induced by 2 mM ManN”.

Consider `Cl.NCC(=O)[C@@H](O)[C@H](O)[C@H](O)CO` [D-isoglucosamine, 1-Amino-1-deoxy-D-Fructose hydrochloride], for which the “stimulation of BCEC proliferation” value in test [2] was “None of these molecules stimulated BCEC proliferation”.

Regarding `CC(=O)N[C@H]1[C@H]([C@H](O)[C@H](O)CO)OC(O)(C(=O)O)C[C@@H]1O` (stereo partly shown) [N-Acetylneuraminic acid], the “stimulation of BCEC proliferation” value in test [2] was “None of these molecules stimulated BCEC proliferation”.

On to `O[C@H]1[C@H](O)[C@@H](O)CN2CC[C@H](O)[C@H]12` [Cas, Castanospermine], for which the “Bip expression by glycosylation inhibitors” value in test [1] (media without growth factors for 24 hours) is “dose-dependent induction of Bip expression”. Besides, the “activation of the JNK pathway by glycosylation inhibitors” value in test [3] is recorded as “able to activate the JNK pathway”. Also, the “activation of ERK and AKT in human ECs by glycosylation inhibitors” value in test [4] is reported as “less obvious”. For the same molecule, in test [5], the “gap closing in BCEC scratch assay by glycosylation inhibitors” value is listed as “significant activity”. The “activation of ERK and AKT in BCECs by glycosylation inhibitors” value in test [6] (FIG. 7E) is “less obvious; also recorded: did not activate ERK”. The “BCEC proliferation by glycosylation inhibitors” value in test [2] (0.01 to 100 μM, 3 days, absence or presence of 5 ng/ml VEGF) is “stimulated in a dose-dependent fashion”.

`CC(=O)N[C@@H]1C(O)O[C@H](CO)[C@@H](O)[C@@H]1O` (stereo partly drawn) [ManNAc, N-Acetyl-D-Mannosamine, reference compound]: the “activation of ERK, AKT, mTOR, CREB, ACC and eNOS by other sugars” value in test [6] (BCECs, FIG. 2C) is on record as “induced a similar activation”.

Regarding `C[C@@H](O[C@H]1[C@H](O)[C@@H](CO)OC(O)[C@@H]1N)C(=O)O` (stereo partly shown) [muramic acid, Muramic acid], the “stimulation of BCEC proliferation” value in test [2] was “None of these molecules stimulated BCEC proliferation”.

As for “bFGF: bFGF purchased from R&D systems, positive control”, the “increase in density of retinal vessels vs PBS group” value in test [7] was “about 35%”.

`CNC[C@H](O)[C@@H](O)[C@H](O)[C@H](O)CO` [meglumine, Meglumine]: the “stimulation of BCEC proliferation” value in test [2] is recorded as “None of these molecules stimulated BCEC proliferation”.
